Measurements as given in ChEMBL document CHEMBL5506020 (J Med Chem, 2024).
pIC50: −log10 of the molar value. The source made the active and inactive calls. The calls are words filed in the database; no cut-off is given here.

Legend:
MV4-11 [1] = assay: Antiproliferative activity against human MV4-11 cells incubated for 120 hrs by Cell-Titer Glo assay; conditions: MV4-11, 120 h
MOLM-13 [2] = assay: Antiproliferative activity against human MOLM-13 cells incubated for 72 hrs by Cell-Titer Glo assay; conditions: MOLM-13, 72 h
[3] = Antiproliferative activity against human MOLM16 cells incubated for 72 hrs by Cell-Titer Glo assay; conditions: MOLM16, 72 h
[4] = Toxicity in NOD/SCID mouse xenografted with human MV4-11 cells assessed as lymphocyte infiltration in liver at 5 mg/kg, ip administered every other day for 2 weeks by H and E staining based assay; format: organism-based; conditions: in vivo, 336 h
MOLM-13 [5] = assay: Downregulation of c-Myc protein level in human MOLM-13 cells at 50 nM incubated for 24 hrs by Western blotting analysis; format: functional, cell-based
MV4-11 [6] = assay: Downregulation of p300 mRNA level in human MV4-11 cells at 100 nM incubated for 6 hrs by qRT-PCR analysis; format: functional, cell-based
Mus musculus [7] = assay: In vivo induction of CBP degradation in NOD/SCID mouse tumor xenografted with human MV4-11 cells at 5 mg/kg, ip administered every other day for 2 weeks by immunoblotting analysis; format: functional, organism-based
MV4-11 [8] = assay: Downregulation of STAT1 protein in human MV4-11 cells at 10 nM incubated for 6 hrs by proteomic analysis; format: functional, cell-based
MV4-11 [9] = assay: Downregulation of CDK5 protein in human MV4-11 cells at 10 nM incubated for 6 hrs by proteomic analysis; format: functional, cell-based
[10] = Toxicity in NOD/SCID mouse xenografted with human MV4-11 cells assessed as effect on kidney at 5 mg/kg, ip administered every other day for 2 weeks by H and E staining based assay; format: organism-based; conditions: in vivo, 336 h
MV4-11 [11] = assay: Downregulation of CBP mRNA level in human MV4-11 cells at 100 nM incubated for 6 hrs by qRT-PCR analysis; format: functional, cell-based
MV4-11 [12] = assay: Antitumor activity against human MV4-11 cells xenografted in NOD-SCID mouse assessed as tumor growth inhibition at 5 mg/kg, ip administered every other day for 2 weeks; format: functional; conditions: MV4-11, 336 h, read-out: TGI
MV4-11 [13] = assay: Downregulation of BRD4 protein level in human MV4-11 cells at 10 nM incubated for 6 hrs by proteomic analysis; format: functional, cell-based
[14] = Toxicity in NOD/SCID mouse xenografted with human MV4-11 cells assessed as aggregation of multinucleated giant cells in spleen at 5 mg/kg, ip administered every other day for 2 weeks by H and E staining based assay; format: organism-based; conditions: in vivo, 336 h
[15] = Toxicity in NOD/SCID mouse xenografted with human MV4-11 cells assessed as effect on heart at 5 mg/kg, ip administered every other day for 2 weeks by H and E staining based assay; format: organism-based; conditions: in vivo, 336 h
EOL1 = assay: Antiproliferative activity against human EOL1 cells upto 10 uM; format: functional, cell-based
MV4-11 [16] = assay: Downregulation of STAT2 protein in human MV4-11 cells at 10 nM incubated for 6 hrs by proteomic analysis; format: functional, cell-based
KG-1 = assay: Antiproliferative activity against human KG-1 cells upto 10 uM; format: functional, cell-based
MV4-11 [17] = assay: Downregulation of BRD3 protein level in human MV4-11 cells at 10 nM incubated for 6 hrs by proteomic analysis; format: functional, cell-based
MV4-11 [18] = assay: Downregulation of BRD2 protein level in human MV4-11 cells at 10 nM incubated for 6 hrs by proteomic analysis; format: functional, cell-based
MV4-11 [19] = assay: Downregulation of p300 protein level in human MV4-11 cells assessed as fold decrease at 10 nM incubated for 6 hrs by proteomic blotting analysis; format: functional, cell-based
MV4-11 [20] = assay: Downregulation of ZFP91 protein level in human MV4-11 cells at 10 nM incubated for 6 hrs by proteomic analysis; format: functional, cell-based
MV4-11 [21] = assay: Downregulation of c-Myc protein level in human MV4-11 cells at 50 nM incubated for 24 hrs by Western blotting analysis; format: functional, cell-based
MV4-11 [22] = assay: Downregulation of IKZF1 level in human MV4-11 cells at 10 uM incubated for 6 hrs by Western blotting analysis; format: functional, cell-based
[23] = Toxicity in NOD/SCID mouse xenografted with human MV4-11 cells assessed as body weight loss at 5 mg/kg, ip administered every other day for 2 weeks; format: organism-based; conditions: in vivo, 336 h
MV4-11 [24] = assay: Downregulation of KRAS protein in human MV4-11 cells at 10 nM incubated for 6 hrs by proteomic analysis; format: functional, cell-based
[25] = Toxicity in NOD/SCID mouse xenografted with human MV4-11 cells assessed as effect on lung at 5 mg/kg, ip administered every other day for 2 weeks by H and E staining based assay; format: organism-based; conditions: in vivo, 336 h
MV4-11 [26] = assay: Downregulation of TP53RK protein in human MV4-11 cells at 10 nM incubated for 6 hrs by proteomic analysis; format: functional, cell-based
MV4-11 [27] = assay: Downregulation of SMARCA4 protein level in human MV4-11 cells at 10 nM incubated for 6 hrs by proteomic analysis; format: functional, cell-based
THP-1 = assay: Antiproliferative activity against human THP-1 cells upto 10 uM; format: functional, cell-based
MV4-11 [28] = assay: Downregulation of GSPT1 protein level in human MV4-11 cells at 10 nM incubated for 6 hrs by proteomic analysis; format: functional, cell-based
MV4-11 [29] = assay: Downregulation of IKZF1 mRNA level in human MV4-11 cells at 100 nM incubated for 6 hrs by qRT-PCR analysis; format: functional, cell-based
MOLM-16 = assay: Downregulation of c-Myc protein level in human MOLM16 cells at 50 nM incubated for 24 hrs by Western blotting analysis; format: functional, cell-based
MV4-11 [30] = assay: Downregulation of TRIM24 protein level in human MV4-11 cells at 10 nM incubated for 6 hrs by proteomic analysis; format: functional, cell-based
MV4-11 [31] = assay: Downregulation of IRF4 protein in human MV4-11 cells at 10 nM incubated for 6 hrs by proteomic analysis; format: functional, cell-based
[32] = Toxicity in NOD/SCID mouse xenografted with human MV4-11 cells assessed as lymphocyte infiltration in liver at 2 to 5 mg/kg, ip administered every other day for 2 weeks by H and E staining based assay; format: organism-based; conditions: in vivo, 336 h, dose 2-5 mg/kg
[33] = Toxicity in NOD/SCID mouse xenografted with human MV4-11 cells assessed as aggregation of multinucleated giant cells in spleen at 2 to 5 mg/kg, ip administered every other day for 2 weeks by H and E staining based assay; format: organism-based; conditions: in vivo, 336 h, dose 2-5 mg/kg
[34] = Toxicity in NOD/SCID mouse xenografted with human MV4-11 cells assessed as effect on kidney at 2 to 5 mg/kg, ip administered every other day for 2 weeks by H and E staining based assay; format: organism-based; conditions: in vivo, 336 h, dose 2-5 mg/kg
MV4-11 [35] = assay: Antitumor activity against human MV4-11 cells xenografted in NOD-SCID mouse assessed as tumor growth inhibition at 2 mg/kg, ip administered every other day for 2 weeks; format: functional; conditions: MV4-11, 336 h, read-out: TGI
Mus musculus [36] = assay: In vivo induction of CBP degradation in NOD/SCID mouse tumor xenografted with human MV4-11 cells at 2 to 5 mg/kg, ip administered every other day for 2 weeks by immunoblotting analysis; format: functional, organism-based; conditions: dose 2-5 mg/kg
[37] = Toxicity in NOD/SCID mouse xenografted with human MV4-11 cells assessed as effect on heart at 2 to 5 mg/kg, ip administered every other day for 2 weeks by H and E staining based assay; format: organism-based; conditions: in vivo, 336 h, dose 2-5 mg/kg
[38] = Toxicity in NOD/SCID mouse xenografted with human MV4-11 cells assessed as body weight loss at 2 to 5 mg/kg, ip administered every other day for 2 weeks; format: organism-based; conditions: in vivo, 336 h, dose 2-5 mg/kg
Mus musculus [39] = assay: In vivo induction of p300 degradation in NOD/SCID mouse tumor xenografted with human MV4-11 cells at 2 to 5 mg/kg, ip administered every other day for 2 weeks by immunoblotting analysis; format: functional, organism-based; conditions: dose 2-5 mg/kg
[40] = Toxicity in NOD/SCID mouse xenografted with human MV4-11 cells assessed as effect on lung at 2 to 5 mg/kg, ip administered every other day for 2 weeks by H and E staining based assay; format: organism-based; conditions: in vivo, 336 h, dose 2-5 mg/kg
[41] = target: Protein cereblon/Histone acetyltransferase p300 (Homo sapiens) (UniProt Q09472+Q96SW2); assay: PROTAC activity at CRBN/p300 in human MV4-11 cells assessed as p300 degradation at 10 to 50 nM incubated for 24 hrs by Western blotting analysis; format: cell-based; conditions: dose 10-50 nM
Protein cereblon/Histone acetyltransferase p300 (Homo sapiens), sequence (Q09472 2-2414 limits assumed): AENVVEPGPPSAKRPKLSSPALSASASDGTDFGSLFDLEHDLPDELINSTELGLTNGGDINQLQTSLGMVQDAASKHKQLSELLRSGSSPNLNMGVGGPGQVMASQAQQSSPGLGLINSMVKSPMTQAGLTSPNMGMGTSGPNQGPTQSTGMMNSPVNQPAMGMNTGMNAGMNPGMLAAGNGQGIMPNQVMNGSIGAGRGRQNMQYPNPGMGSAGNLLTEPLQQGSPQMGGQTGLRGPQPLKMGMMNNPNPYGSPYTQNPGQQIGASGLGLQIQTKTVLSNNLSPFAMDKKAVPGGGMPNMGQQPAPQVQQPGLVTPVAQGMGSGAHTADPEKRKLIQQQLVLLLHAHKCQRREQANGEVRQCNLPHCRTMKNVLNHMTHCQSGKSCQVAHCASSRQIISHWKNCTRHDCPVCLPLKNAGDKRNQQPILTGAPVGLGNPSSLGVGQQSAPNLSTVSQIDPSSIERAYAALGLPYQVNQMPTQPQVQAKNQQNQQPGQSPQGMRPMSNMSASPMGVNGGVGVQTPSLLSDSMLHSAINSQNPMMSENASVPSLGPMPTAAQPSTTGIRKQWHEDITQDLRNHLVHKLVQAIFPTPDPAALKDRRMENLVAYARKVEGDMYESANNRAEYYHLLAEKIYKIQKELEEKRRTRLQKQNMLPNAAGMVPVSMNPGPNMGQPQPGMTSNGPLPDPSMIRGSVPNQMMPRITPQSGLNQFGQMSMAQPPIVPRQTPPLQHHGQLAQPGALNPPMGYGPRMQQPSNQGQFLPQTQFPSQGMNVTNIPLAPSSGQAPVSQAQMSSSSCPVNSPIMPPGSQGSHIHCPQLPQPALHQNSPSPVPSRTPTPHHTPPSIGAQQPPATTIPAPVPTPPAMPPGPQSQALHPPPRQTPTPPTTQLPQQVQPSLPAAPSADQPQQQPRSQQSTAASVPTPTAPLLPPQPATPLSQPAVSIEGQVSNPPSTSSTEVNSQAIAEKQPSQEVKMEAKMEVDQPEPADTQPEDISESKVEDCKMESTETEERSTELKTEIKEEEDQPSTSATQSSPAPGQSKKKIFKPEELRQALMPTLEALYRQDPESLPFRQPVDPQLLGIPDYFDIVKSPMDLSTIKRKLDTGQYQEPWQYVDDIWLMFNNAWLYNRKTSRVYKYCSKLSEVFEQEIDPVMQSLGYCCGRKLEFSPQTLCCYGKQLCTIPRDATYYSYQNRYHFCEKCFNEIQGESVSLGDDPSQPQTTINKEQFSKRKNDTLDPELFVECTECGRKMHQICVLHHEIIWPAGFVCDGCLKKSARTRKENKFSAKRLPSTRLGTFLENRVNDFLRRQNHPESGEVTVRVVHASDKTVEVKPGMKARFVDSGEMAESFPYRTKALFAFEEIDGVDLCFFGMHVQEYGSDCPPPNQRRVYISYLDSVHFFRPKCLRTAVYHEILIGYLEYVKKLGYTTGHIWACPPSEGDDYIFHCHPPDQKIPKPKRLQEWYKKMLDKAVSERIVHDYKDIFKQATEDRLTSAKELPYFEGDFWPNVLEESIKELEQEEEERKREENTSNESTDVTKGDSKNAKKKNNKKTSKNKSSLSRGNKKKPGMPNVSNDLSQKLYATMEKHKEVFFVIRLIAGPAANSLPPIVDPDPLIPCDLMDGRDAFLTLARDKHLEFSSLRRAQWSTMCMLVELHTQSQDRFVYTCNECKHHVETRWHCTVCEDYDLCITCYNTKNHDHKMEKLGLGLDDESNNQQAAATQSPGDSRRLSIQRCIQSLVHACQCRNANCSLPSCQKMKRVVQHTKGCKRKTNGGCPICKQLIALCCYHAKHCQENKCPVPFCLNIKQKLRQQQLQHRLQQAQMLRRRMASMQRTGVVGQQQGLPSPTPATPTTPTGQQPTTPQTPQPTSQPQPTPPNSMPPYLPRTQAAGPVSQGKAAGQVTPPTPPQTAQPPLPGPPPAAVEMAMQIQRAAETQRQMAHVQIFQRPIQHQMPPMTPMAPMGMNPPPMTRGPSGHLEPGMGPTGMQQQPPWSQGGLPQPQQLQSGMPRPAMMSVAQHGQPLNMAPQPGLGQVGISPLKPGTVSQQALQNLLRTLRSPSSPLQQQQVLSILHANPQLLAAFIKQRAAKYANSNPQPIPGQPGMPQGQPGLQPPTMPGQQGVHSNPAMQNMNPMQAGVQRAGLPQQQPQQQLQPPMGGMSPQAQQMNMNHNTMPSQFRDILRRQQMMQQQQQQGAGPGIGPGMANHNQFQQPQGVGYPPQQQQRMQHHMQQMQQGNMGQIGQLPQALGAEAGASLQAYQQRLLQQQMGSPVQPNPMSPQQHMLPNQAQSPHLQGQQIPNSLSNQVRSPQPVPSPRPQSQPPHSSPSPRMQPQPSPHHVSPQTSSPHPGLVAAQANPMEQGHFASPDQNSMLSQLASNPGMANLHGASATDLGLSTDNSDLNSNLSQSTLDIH
Protein cereblon/Histone acetyltransferase p300 (Homo sapiens), sequence (Q96SW2 whole entry partner): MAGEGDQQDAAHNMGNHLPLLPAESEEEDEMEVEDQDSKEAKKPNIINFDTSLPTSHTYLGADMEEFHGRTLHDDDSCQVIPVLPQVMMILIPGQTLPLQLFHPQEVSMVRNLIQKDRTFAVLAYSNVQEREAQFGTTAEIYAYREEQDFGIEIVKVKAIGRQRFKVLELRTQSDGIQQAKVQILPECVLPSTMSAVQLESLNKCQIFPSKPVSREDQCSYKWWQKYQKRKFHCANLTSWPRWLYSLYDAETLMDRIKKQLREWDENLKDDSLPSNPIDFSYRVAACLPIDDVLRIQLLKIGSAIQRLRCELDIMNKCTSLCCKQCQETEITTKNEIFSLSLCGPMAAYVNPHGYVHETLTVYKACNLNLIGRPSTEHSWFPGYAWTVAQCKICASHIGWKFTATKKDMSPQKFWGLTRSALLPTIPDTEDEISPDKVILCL

| pIC50 (MV4-11 [1]) | pIC50 (MOLM-13 [2]) | Structure (SMILES) | pIC50 [3] | Activity (MOLM-13 [5]) | Activity (MV4-11 [6]) | Activity (MV4-11 [8]) | Activity (MV4-11 [9]) | Activity (MV4-11 [11]) | inhibition in vivo at 5 mg/kg (MV4-11 [12]) [%] | Activity (MV4-11 [13]) | Activity (EOL1) | Activity (MV4-11 [16]) | Activity (KG-1) | Activity (MV4-11 [17]) | Activity (MV4-11 [18]) | Activity (MV4-11 [20]) | Activity (MV4-11 [21]) | Activity (MV4-11 [22]) | Activity (MV4-11 [24]) | Activity (MV4-11 [26]) | also measured |
| --- | --- | --- | --- | --- | --- | --- | --- | --- | --- | --- | --- | --- | --- | --- | --- | --- | --- | --- | --- | --- | --- |
| 7.35 | < 6.00 | Cc1noc(C)c1-c1ccc2c(c1)nc([C@@H]1CCCC(=O)N1c1ccc(F)c(F)c1)n2C1CCN(CC(=O)Nc2cnc(-c3ccc(CNc4cccc5c4C(=O)N(C4CCC(=O)N(C)C4=O)C5=O)cc3)nc2)CC1 (stereo partly specified) | 7.34 |  |  |  |  |  |  |  |  |  |  |  |  |  |  |  |  |  |  |
| 9.05 | 7.33 | Cc1noc(C)c1-c1ccc2c(c1)nc([C@@H]1CCCC(=O)N1c1ccc(F)c(F)c1)n2C1CCN(CC(=O)Nc2cnc(-c3ccc(CNc4cccc5c4C(=O)N(C4CCC(=O)NC4=O)C5=O)cc3)nc2)CC1 (stereo partly specified) | 8.26 | Active | inactive | Active | Active | inactive | 93 | inactive | inactive | Active | inactive | inactive | inactive | inactive | Active | Active | Active | Active | Activity [4]: Toxic; Activity (Mus musculus [7]): Active; Activity [10]: Non-Toxic; Activity [14]: Toxic; Activity [15]: Non-Toxic; Activity (MV4-11 [19]): inactive; Activity [23]: Non-Toxic; Activity [25]: Non-Toxic; Activity (MV4-11 [27]): inactive; Activity (THP-1): inactive; Activity (MV4-11 [28]): inactive; Activity (MV4-11 [29]): Active; Activity (MOLM-16): Active; Activity (MV4-11 [30]): inactive; Activity (MV4-11 [31]): Active |
| 8.74 | 7.57 | Cc1noc(C)c1-c1ccc2c(c1)nc([C@@H]1CCCC(=O)N1c1ccc(F)c(F)c1)n2C1CCN(CC(=O)Nc2ccc(-c3ccc(CNc4cccc5c4C(=O)N(C4CCC(=O)NC4=O)C5=O)cc3)nc2)CC1 (stereo partly specified) | 8.34 | Active | inactive | Active | Active | inactive | 88 | inactive | inactive | Active | inactive | inactive | inactive | inactive | Active | Active | Active | Active | Activity [32]: Toxic; Activity [33]: Toxic; Activity [34]: Non-Toxic; inhibition in vivo at 2 mg/kg (MV4-11 [35]): 53%; Activity (Mus musculus [36]): Active; Activity [37]: Non-Toxic; Activity [38]: Non-Toxic; Activity (Mus musculus [39]): Active; Activity [40]: Non-Toxic; Activity (MV4-11 [27]): inactive; Activity (THP-1): inactive; Activity (MV4-11 [28]): inactive; Activity (MV4-11 [29]): Active; Activity (MOLM-16): Active; Activity (MV4-11 [30]): inactive; Activity (MV4-11 [31]): Active |
| 5.91 |  | Cc1noc(C)c1-c1ccc2c(c1)nc([C@@H]1CCCC(=O)N1c1ccc(F)c(F)c1)n2C1CCN(CC(=O)NCc2ccc(CNc3cccc4c3C(=O)N(C3CCC(=O)NC3=O)C4=O)cc2)CC1 (stereo partly specified) |  |  |  |  |  |  |  |  |  |  |  |  |  |  |  |  |  |  | Activity [41]: Active |
